Data set [1] has as its system human lung cancer NCI-H1581 nude mouse subcutaneous xenograft tumor. Nature of the data set: Efficacy in human lung cancer NCI-H1581 nude mouse subcutaneous xenograft tumor model. The class given is in vivo. An excerpt:
The human lung cancer NCI-H1581 cell strain (preserved by Shanghai Institute of Materia Medica, Chinese Academy of Sciences) was inoculated subcutaneously in the right axilla of nude mice with an inoculation amount of the cells of 5×10^6 cells/mouse. The formed xenograft tumor was directly inoculated for use.
The tumor tissue in the vigorous growth phase was cut into about 1.5 mm^3 and was inoculated subcutaneously in the right axilla of the nude mouse under sterile conditions. The diameter of the subcutaneous xenograft tumor in the nude mouse was measured using a vernier caliper, and the animals were randomly grouped after the tumors grew to an average volume of about 150-160 mm^3. Animals in the Example 3 sample group were orally administered at 10 mg/kg, 5 mg/kg, and 2.5 mg/kg once a day for two consecutive weeks. Animals in the […] (AZD4547) were orally administered at 12.5 mg/kg once a day for two consecutive weeks. Throughout the experiment, the diameter of the xenograft tumor was measured 2 times a week, and the body weight of the mice was measured at the same time. The tumor volume (TV) was calculated as follows: TV=½×a×b^2, wherein a and b represent the length and width, respectively. The relative tumor volume (RTV) was calculated from the measurement results using the following formula: RTV=Vt/V0, wherein V0 is the tumor volume measured at the time of grouping and administration (d0), and Vt is the tumor volume at each measurement. The evaluation index of the anti-tumor activity was the relative tumor proliferation rate T/C (%), which was calculated as follows: T/C (%)=(TRTV/CRTV)×100%, wherein TRTV represents RTV of the treatment group; CRTV represents RTV of the negative control group.
In general terms: Xenograft models place foreign cells or tissue in a host animal.

Data set [2] in a line: Solubility experiments of compound of formula (I) and salts thereof. The format is physicochemical. The following applies: 25° C.
A short description of data set [3]: Water sorption and desorption experiments (DVS hygroscopicity). The class given is physicochemical. The conditions noted are these: 40%-80% relative humidity, 25° C.
A short description of data set [4]: Solid stability study of dihydrochloride salt crystal form I. The class given is physicochemical. From the text:
(in a covered sample flask) for 7 days, and for physical stability at room temperature/92.5% RH (uncovered) for 10 days.

Data set [5] can be described thus: Solid grinding stability: dropwise addition of solvents and grinding. The following applies: ground. The format is physicochemical.
A short description of data set [6]: Solid grinding stability: solid grinding, XRPD. The format is physicochemical. The conditions noted are these: 20 mg ground in a mortar for 2 min and 5 min. The protocol: 20 mg of the sample in Example 3 was weighed out, added to a mortar, and ground for 2 min and 5 min, respectively. Then, the sample was characterized by XRPD.
Setting [7] is: Na2HPO4-citric acid buffer (pH 4.6).
[8] abbreviates: 40° C./75% RH (uncovered) for 7 days.
The mark [9] stands for this setting: 60° C. (covered sample flask) for 7 days.

Molecules are shown by their SMILES. Structures can show the parent of a compound that is named as a salt.

Regarding `COc1cc(CCc2cc(NC(=O)c3ccc(N4C[C@@H](C)N[C@@H](C)C4)cc3)n[nH]2)cc(OC)c1` [AZD4547, reference compound], the “T/C (relative tumor proliferation rate)” value in data set [1] (12.5 mg/kg orally once a day for two consecutive weeks) is recorded as 20.01%.
A word on the Solubility: it is the concentration that dissolves in the medium under given conditions. Consider `CNC(=O)c1cccc2cc(Oc3ccnc(NC(=O)c4ccc(N5C[C@@H](C)N[C@@H](C)C5)cc4)c3)ccc12` [Compound of formula (I)], for which the Solubility stood at 45 µg/mL in data set [2] (setting [7]) and 8 µg/mL in data set [2] (deionized water).
In the case of `CNC(=O)c1cccc2cc(Oc3ccnc(NC(=O)c4ccc(N5C[C@@H](C)N[C@@H](C)C5)cc4)c3)ccc12` [Dihydrochloride salt crystal form I], in data set [3], the “Hygroscopicity (%)” value is listed as 0.65%. Further, the Purity was 99.86 in data set [4] (setting [8]), 99.85 in data set [4] (setting [9]) and 99.85 in data set [4] (T0). The “XRPD (crystal form)” value in data set [4] (setting [8]), in data set [4] (setting [9]) and in data set [4] (room temperature/92.5% RH (uncovered) for 10 days) was “Not changed” throughout. The “Solvent grinding result (crystal form)” value in data set [5] (Acetone added dropwise), in data set [5] (Acetonitrile added dropwise), in data set [5] (Butanone added dropwise), in data set [5] (Ethanol added dropwise), in data set [5] (Ethyl acetate added dropwise) and in data set [5] (Isopropanol added dropwise) was “Crystal form I” throughout. For the same compound, in data set [5] (Methanol added dropwise), the “Solvent grinding result (crystal form)” value is recorded as “Crystal form I”. In addition, in data set [6], the “Crystal form of the ground sample (XRPD)” value was “not changed”. Moreover, the entries for the “T/C (relative tumor proliferation rate)” value in data set [1] (2.5 mg/kg orally once a day for two consecutive weeks), in data set [1] (5 mg/kg orally once a day for two consecutive weeks) and in data set [1] (10 mg/kg orally once a day for two consecutive weeks) were 49.06%, 33.22% and 17.17%, respectively. Besides, the “Effect on the growth of xenograft tumors” value in data set [1] (10 mg/kg, 5 mg/kg and 2.5 mg/kg orally once a day for two consecutive weeks) is listed as “significant inhibitory effect”. Further, the “Animal condition and mortality during the experiment” value in data set [1] (10, 5 and 2.5 mg/kg orally once a day for two weeks, nude mice) is “no mice died”.
Regarding `C[C@@H]1COC(Nc2ccc3ncnc(Nc4ccc(OCc5nccs5)c(Cl)c4)c3c2)=N1.O=C(O)/C=C\C(=O)O` [Maleate salt], the Solubility was 30 µg/mL in data set [2] (setting [7]) and 2000 µg/mL in data set [2] (deionized water). In addition, in data set [3], the “Hygroscopicity (%)” value is 0.81%.

Source of the values: US20250171415A1, “SALT OF SUBSTITUTED AMINO SIX-MEMBERED NITRIC HETEROCYCLIC COMPOUND, CRYSTAL FORM THEREOF, METHOD FOR PREPARING SAME, AND USE THEREOF” (SHANGHAI RUNSHI MEDICAL TECHNOLOGY CO., LTD., priority 2022, published 2025).
